Measurements from PMC3437750 (Journal of medicinal chemistry, 2011).

Legend:
[1] = Parallel Artificial Membrane Permeation Assay; type: in vitro ADME; conditions: assessed in vitro, PAMPA
[2] = Glutathione conjugation assay; conditions: 10 µM, 2 mg/mL rat hepatic S9, 10 mM glutathione, 37°C, 2 hours
purified human PMM2 = target: T1, purified human PMM2 (Homo sapiens, UniProt O15305); experiment: PMM2 in vitro enzymatic concentration-response assay; type: biochemical; conditions: tested up to 20 µM where stated
T1 sequence (O15305 1-246): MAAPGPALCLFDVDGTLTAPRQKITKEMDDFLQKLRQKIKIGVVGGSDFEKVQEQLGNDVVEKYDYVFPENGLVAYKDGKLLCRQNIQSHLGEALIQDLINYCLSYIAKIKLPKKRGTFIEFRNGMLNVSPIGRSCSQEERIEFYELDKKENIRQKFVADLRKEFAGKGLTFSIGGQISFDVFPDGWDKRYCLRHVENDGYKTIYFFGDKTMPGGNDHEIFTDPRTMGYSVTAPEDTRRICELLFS

purified human PMI = target: T2, purified human PMI (Homo sapiens, UniProt P34949); type: biochemical
T2 sequence (P34949 1-423): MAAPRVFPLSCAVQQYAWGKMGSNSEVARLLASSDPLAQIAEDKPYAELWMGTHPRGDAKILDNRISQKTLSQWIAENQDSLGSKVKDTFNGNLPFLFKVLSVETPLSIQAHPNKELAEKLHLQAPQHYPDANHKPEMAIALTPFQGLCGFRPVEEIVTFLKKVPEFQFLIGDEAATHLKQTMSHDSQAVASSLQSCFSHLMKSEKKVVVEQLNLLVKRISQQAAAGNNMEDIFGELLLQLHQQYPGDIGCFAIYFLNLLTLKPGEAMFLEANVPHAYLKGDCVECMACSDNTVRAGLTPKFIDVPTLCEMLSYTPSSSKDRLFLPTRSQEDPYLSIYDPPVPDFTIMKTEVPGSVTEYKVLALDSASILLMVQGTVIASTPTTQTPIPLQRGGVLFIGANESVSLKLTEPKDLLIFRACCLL

Structure (SMILES)	GSH adduct formation by LCMS (in words) [2]	PMM2 inhibition (in words) (purified human PMM2)	further results
O=c1c2cc(F)ccc2sn1-c1ccccc1 [Compound 19, 5-Fluoro-2-phenylbenzo[d]isothiazol-3(2H)-one]	no GSH adducts were observed		predicted permeability (in words) [1]: moderately permeable
Cc1ccc(C)c(-n2sc3ccccc3c2=O)c1 [Compound 16, 2-(2,5-dimethylphenyl) benzo[d]isothiazol-3(2H)-one]		a measurable inhibition of PMM2 was observed	
O=c1c2ccccc2sn1-c1ccccc1 [Compound 1, 2-Phenyl-2-hydrobenzo[d]isothiazol-3-one]		selective for PMI over PMM2	
O=c1c2ccccc2sn1-c1ccc(C(F)(F)F)cc1 [Compound 6, 2-[4-(Trifluoromethyl)phenyl]-2-hydrobenzo[d]isothiazol-3-one]		inactive against both enzymes	cellular toxicity (35S-Met/Cys incorporation, in words) (Hela cells): exhibits cellular toxicity; PMI inhibition (in words) (purified human PMI): inactive against both enzymes
O=C(O)Cc1ccccc1Nc1c(Cl)cccc1Cl [diclofenac, reference compound]	showed the expected conjugate masses		
